In one experiment the test system is K328M-Wee1-luciferase. The experiment can be described thus: Wee1-luciferase assay (stabilization of K328M-Wee1-luciferase). It is filed as cell-based. The note with it: for % Inhibition, Wee1 Degradation: at 250 nM, reported relative to SR-1277 = 100%; for EC50: read-out: Wee1 Stabilization. The text has this: Steady-state level of K328M-Wee1-Luciferase (K328M-Wee1-Luc) was divided by Luciferase level (Luc) and plotted.
Similar assays have previously been described; PubChem AID 1807.

A further experiment addresses CK1δ (Homo sapiens, UniProt P48730). Description: In-house CK1d inhibition assay (TR-FRET). It is filed as biochemical. The note with it: footnote b: in-house CK1d assay. Here is the method:
In vitro kinase assay to detect CK1 or FLT3 activity: CK1 and FLT3 assays as well as complete kinase profile of 296 kinases was performed by Reaction Biology Corporation. For FLT3 20 μM final Abltide was used, sequence: [[…]]. For CK1 (all isoforms) 20 μM CK1 tide was used, sequence: [KRRRAL[pS]VASLPGL] in a standard kinase assay with ^32P-ATP and purified kinase. Incorporation of ^32P-ATP into the peptide was measured after a filter-binding assay. In-house CK1d inhibition assays were performed using a standard homogenous time-resolved fluorescence resonance energy transfer (TR-FRET) format in 50 mM Hepes, pH 7.0, 2.5 mM MgCl2, 0.1 mg/ml bovine serum albumin, 1 mM DL-dithiothreitol, 0.01% Triton X-100 (all from Sigma-Aldrich). Briefly, the CK1δ substrate (DEKTDDE, containing CK1 consensus sequence; 4 μL of a 500 nM stock solution) is labeled with a small Ulight acceptor dye (PerkinElmer). In the presence of 10 μL of 10 nM CK1δ, the Ulight peptide is phosphorylated at a single amino acid that is specifically recognized by a europium chelate (Eu)-labeled phosphospecific antibody. Assays were performed in the presence of 2 μL of compound at different (measured) concentrations, and reactions were stopped by adding 10 μL of 4 nM Eu-anti-p-Topo-IIa (PerkinElmer) in Lance Detection Buffer (Perkin Elmer). Upon excitation of the Eu-labeled antibody, energy is transferred to the acceptor dye resulting in the emission of detected light at 665 nm.

Structures are written as SMILES.

Chain of CK1δ (P48730 whole entry, canonical isoform): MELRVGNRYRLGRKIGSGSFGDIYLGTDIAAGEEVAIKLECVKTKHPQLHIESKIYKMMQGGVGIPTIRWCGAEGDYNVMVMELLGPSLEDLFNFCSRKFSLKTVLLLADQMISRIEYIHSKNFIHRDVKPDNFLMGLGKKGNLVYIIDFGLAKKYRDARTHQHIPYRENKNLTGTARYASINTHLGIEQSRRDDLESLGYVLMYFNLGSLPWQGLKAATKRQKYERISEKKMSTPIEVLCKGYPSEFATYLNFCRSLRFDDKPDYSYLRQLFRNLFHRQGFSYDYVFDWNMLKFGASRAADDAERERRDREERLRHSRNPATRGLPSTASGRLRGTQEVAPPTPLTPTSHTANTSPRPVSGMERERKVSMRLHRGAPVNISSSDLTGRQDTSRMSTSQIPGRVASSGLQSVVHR

As for `c1cnc2ccc3[nH]c(CNc4nc(N5CCOCC5)nc5c4ncn5-c4ccsc4)nc3c2c1` [SR-1281], in the experiment on K328M-Wee1-luciferase, the “% Inhibition, Wee1 Degradation” value stood at 22.0%. With `CCOC(=O)c1cccc2[nH]c(CNc3nc(N4CCOCC4)nc4c3ncn4C(C)C)nc12` [SR-1283], the “% Inhibition, Wee1 Degradation” value in the experiment on K328M-Wee1-luciferase is listed as 17.0%. On to `Nc1ccc2[nH]c(CNc3nc(N4CCOCC4)nc4c3ncn4-c3ccsc3)nc2c1` [SR-1286], for which, in the experiment on K328M-Wee1-luciferase, the “% Inhibition, Wee1 Degradation” value amounted to 8.3%. Take `Nc1cccc2[nH]c(CNc3nc(N4CCOCC4)nc4c3ncn4-c3ccsc3)nc12` [SR-1287]: the “% Inhibition, Wee1 Degradation” value with K328M-Wee1-luciferase came out at 15.6%.

With `c1ccc2[nH]c(CNc3nc(N4CCCCC4)nc4c3ncn4-c3ccsc3)nc2c1` [SR-1288], the “% Inhibition, Wee1 Degradation” value in the experiment on K328M-Wee1-luciferase was 10.5%. With `C[C@@H](Nc1nc(NCc2nc3ccccc3[nH]2)c2ncn(-c3ccsc3)c2n1)c1ccccc1` [SR-1289], the “% Inhibition, Wee1 Degradation” value with K328M-Wee1-luciferase worked out at 9.2%. Still for that read-out and setting: in the case of `c1ccc2[nH]c(CNc3nc(N4CCSCC4)nc4c3ncn4-c3ccsc3)nc2c1` [SR-1291] it was 11.4%; in that of `c1ccc2[nH]c(CNc3nc(N4CCCC4)nc4c3ncn4-c3ccsc3)nc2c1` [SR-1293], 9.9%. `C=CCN(CC=C)c1nc(NCc2nc3ccccc3[nH]2)c2ncn(-c3ccsc3)c2n1` [SR-1295]: the “% Inhibition, Wee1 Degradation” value in the experiment with K328M-Wee1-luciferase worked out at 8.2%. Same read-out and setting: in the case of `OCCN1CCN(c2nc(NCc3nc4ccccc4[nH]3)c3ncn(-c4ccsc4)c3n2)CC1` [SR-1296] it was 10.0%; in that of `c1ccc2c(c1)CCN2c1nc(NCc2nc3ccccc3[nH]2)c2ncn(-c3ccsc3)c2n1` [SR-1297], 7.9%; in that of `c1ccc2[nH]c(CNc3nc(NCCN4CCOCC4)nc4c3ncn4-c3ccsc3)nc2c1` [SR-1298], 8.1%. The same measure, in the same setting: the same measure for `NCCN1CCN(c2nc(NCc3nc4ccccc4[nH]3)c3ncn(-c4ccsc4)c3n2)CC1` [SR-1299]: 8.6%. As for `O=C(O)c1cccc2[nH]c(CNc3nc(N4CCOCC4)nc4c3ncn4-c3ccsc3)nc12` [SR-1401], the “% Inhibition, Wee1 Degradation” value with K328M-Wee1-luciferase is listed as 0.0%. On the same count and under the same terms, the same measure for `CC(C)n1cnc2c(NCc3nc4c(C(=O)O)cccc4[nH]3)nc(N3CCOCC3)nc21` [SR-1402]: 0.0%.

As usually defined, the IC50 is the concentration that inhibits the measured activity by half. Higher therefore signals lower potency. Turning to `O=[N+]([O-])c1cccc2[nH]c(CNc3nc(N4CCOCC4)nc4c3ncn4-c3cccc(F)c3)nc12` [SR-2364], at CK1δ, half-maximal inhibition (IC50) was put at 46 nM. The same measure, in the same setting: in the case of `O=[N+]([O-])c1cccc2[nH]c(CNc3nc(N4CCOCC4)nc4c3ncn4-c3ccccc3F)nc12` [SR-2366] it was 114 nM; in that of `O=[N+]([O-])c1cccc2[nH]c(CNc3nc(N4CCOCC4)nc4c3ncn4-c3cc(F)cc(F)c3)nc12` [SR-2368], 75 nM; in that of `CN1CCN(c2nc(NCc3nc4cc(C(F)(F)F)ccc4[nH]3)c3ncn(-c4ccoc4)c3n2)CC1` [SR-2867], 199 nM.

At CK1δ, `CN1CCN(c2nc(NCc3nc4cc(Cl)ccc4[nH]3)c3ncn(-c4cccc(F)c4)c3n2)CC1` [SR-2870] gave a half-maximal inhibitory concentration (IC50) of 828 nM. `CN1CCN(c2nc(NCc3nc4cc(F)ccc4[nH]3)c3ncn(-c4cccc(F)c4)c3n2)CC1` [SR-2871]: half-maximal inhibition against CK1δ (IC50) required 190 nM. On CK1δ, `NC1CCN(c2nc(NCc3nc4cc(Cl)ccc4[nH]3)c3ncn(-c4ccsc4)c3n2)CC1` [SR-2875] returned a concentration for half-maximal inhibition (IC50) of 119 nM. Same read-out and setting: the same measure for `Clc1ccc2[nH]c(CNc3nc(N4CCNCC4)nc4c3ncn4-c3ccsc3)nc2c1` [SR-2876]: 51 nM; for `c1ccc2[nH]c(CNc3nc(N4CCNCC4)nc4c3ncn4-c3ccoc3)nc2c1` [SR-2914]: 116 nM. In turn, `CC1CN(c2nc(NCc3nc4ccccc4[nH]3)c3ncn(-c4ccsc4)c3n2)CCN1` (centres unmarked) [SR-2915] registered an IC50 at CK1δ of 199 nM. On the same count and under the same terms, the same measure for `CCOC(=O)c1ccc2[nH]c(CNc3nc(N4CCNCC4)nc4c3ncn4-c3ccoc3)nc2c1` [SR-2916]: 687 nM; for `Clc1ccc2[nH]c(CNc3nc(N4CCCNCC4)nc4c3ncn4-c3ccoc3)nc2c1` [SR-2917]: 120 nM. The same measure, in the same setting: in the case of `COC(=O)c1cccc2[nH]c(CNc3nc(N4CCNCC4)nc4c3ncn4-c3ccoc3)nc12` [SR-2927] it was 33 nM; in that of `CN(C)C(=O)c1cccc2[nH]c(CNc3nc(N4CCNCC4)nc4c3ncn4-c3ccoc3)nc12` [SR-2928], 107 nM. Same read-out and setting: in the case of `Fc1cccc(-n2cnc3c(NCc4nc5ccccc5[nH]4)nc(N4CCOCC4)nc32)c1` [SR-2931] it was 101 nM. On to `CN1CCN(c2nc(NCc3nc4ccccc4[nH]3)c3ncn(-c4cccc(F)c4)c3n2)CC1` [SR-2932], for which, at CK1δ, the IC50 came to 306 nM. On the same count and under the same terms, the same measure for `CCN1CCN(c2nc(NCc3nc4ccccc4[nH]3)c3ncn(-c4cccc(F)c4)c3n2)CC1` [SR-2948]: 589 nM; for `CC(C)N1CCN(c2nc(NCc3nc4ccccc4[nH]3)c3ncn(-c4cccc(F)c4)c3n2)CC1` [SR-2949]: 2410 nM. The same measure, in the same setting: the same measure for `Fc1cccc(-n2cnc3c(NCc4nc5c(Cl)cccc5[nH]4)nc(N4CCOCC4)nc32)c1` [SR-2950]: 153 nM. Still for that read-out and setting: the same measure for `Fc1cccc(-n2cnc3c(NCc4cccc5ccccc45)nc(N4CCOCC4)nc32)c1` [SR-3004]: 666 nM; for `Fc1cccc(-n2cnc3c(NCc4nc5ccccc5[nH]4)nc(N4CCCCC4)nc32)c1` [SR-3005]: above 10000 nM; for `Fc1cccc(-n2cnc3c(NCc4nc5ccccc5[nH]4)nc(N4CCCC4)nc32)c1` [SR-3006]: 884 nM.

Compound `c1ccc(-c2cccc(-n3cnc4c(NCc5nc6ccccc6[nH]5)nc(N5CCOCC5)nc43)c2)cc1` [SR-3048] had a 50% inhibitory concentration (IC50) on CK1δ above 10000 nM. The same measure, in the same setting: the same measure for `Fc1cccc(-n2cnc3c(NCc4nc5ccccc5[nH]4)nc(N4CCC(F)(F)CC4)nc32)c1` [SR-3060]: above 10000 nM. On the same count and under the same terms, in the case of `Fc1cccc(-n2cnc3c(NCc4ccc5c(c4)OCO5)nc(N4CCOCC4)nc32)c1` [SR-3061] it was 199 nM; in that of `NC1CN(c2nc(NCc3nc4ccccc4[nH]3)c3ncn(-c4cccc(F)c4)c3n2)C1` [SR-3084], 382 nM; in that of `Fc1cccc(-n2cnc3c(NCc4nc5c(F)cccc5[nH]4)nc(N4CCOCC4)nc32)c1` [SR-3086], 37 nM. `OC1CN(c2nc(NCc3nc4ccccc4[nH]3)c3ncn(-c4cccc(F)c4)c3n2)C1` [SR-3087]: the 50% inhibitory concentration (IC50) at CK1δ was found to be 482 nM.

As to `NC1CN(c2nc(NCc3nc4cc(Cl)ccc4[nH]3)c3ncn(-c4cccc(F)c4)c3n2)C1` [SR-3095], the half-inhibitory concentration (IC50) at CK1δ was found to be 360 nM. Consider `C[C@@H]1CN(c2nc(NCc3nc4cc(Cl)ccc4[nH]3)c3ncn(-c4cccc(F)c4)c3n2)C[C@H](C)O1` [SR-3096], for which it took 830 nM to reach half-maximal inhibition against CK1δ (IC50).

With `NC1CCN(c2nc(NCc3nc4cc(Cl)ccc4[nH]3)c3ncn(-c4cccc(F)c4)c3n2)C1` (centres unmarked) [SR-3098], half-maximal inhibition at CK1δ (IC50) required 150 nM.

On CK1δ, `Fc1cccc(-n2cnc3c(NCc4nc5cc(F)ccc5[nH]4)nc(N4CCOCC4)nc32)c1` [SR-3162] returned an IC50 of 88 nM. Still for that read-out and setting: the same measure for `Fc1cccc(-n2cnc3c(NCc4nc5cc(F)ccc5[nH]4)nc(N4CCNCC4)nc32)c1` [SR-3163]: 62 nM. As to `CC(C)n1cnc2c(NCc3nc4ccccc4[nH]3)nc(N3CCOCC3)nc21` [SR-648126], in the experiment on K328M-Wee1-luciferase, the “% Inhibition, Wee1 Degradation” value is listed as 4.1% and the EC50 is 5300 nM. The like results for `c1ccc(N2CCN(c3nc(NCc4nc5ccccc5[nH]4)c4ncn(-c5ccsc5)c4n3)CC2)nc1` [SR-648378] were, in that order, 4.0% and 4300 nM.

Regarding `c1ccc(-n2cnc3c(NCc4nc5ccccc5[nH]4)nc(N4CCOCC4)nc32)cc1` [SR-649967], in the experiment with K328M-Wee1-luciferase, the “% Inhibition, Wee1 Degradation” value amounted to 4.0% and the EC50 was 4300 nM. On to `CC(C)n1cnc2c(NCc3nc4ccccc4[nH]3)nc(Nc3cccnc3)nc21` [SR-655534], for which, in the experiment on K328M-Wee1-luciferase, the “% Inhibition, Wee1 Degradation” value amounted to 3.4% and the EC50 came to 3800 nM. The corresponding values for `CC(C)n1cnc2c(NCc3nc4ccccc4[nH]3)nc(Nc3ccncn3)nc21` [SR-656428] are 4.0% and 4400 nM. Turning to `O=C(NC1CC1)c1ccc(-c2nc(NCc3nc4ccccc4[nH]3)c3ncn(-c4ccsc4)c3n2)cc1` [SR-658807], in the experiment on K328M-Wee1-luciferase, the “% Inhibition, Wee1 Degradation” value came to 3.6% and the EC50 worked out at 4100 nM. The corresponding values for `CC(C)n1cnc2c(NCc3nc4ccccc4[nH]3)nc(Nc3cnccn3)nc21` [SR-660754] are 5.3% and 4000 nM. Take `c1ccc2[nH]c(CNc3nc(Nc4cnccn4)nc4c3ncn4-c3ccsc3)nc2c1` [SR-660983]: in the experiment with K328M-Wee1-luciferase, the “% Inhibition, Wee1 Degradation” value was determined as 2.9% and the EC50 came out at 3800 nM. Regarding `CCN(CC)CCNC(=O)c1c(C)[nH]c(/C=C2\C(=O)Nc3ccc(F)cc32)c1C` [Sutent, reference compound], the “stabilization of K328M-Wee1-luciferase” value with K328M-Wee1-luciferase (HeLa cells, result in words) was “does not stabilize K328M-Wee1-luciferase”.

Source of the values: patent US9493464B2, “Wee1 degradation inhibitors” (The Scripps Research Institute, priority 2012, dated 2016).
